We go through 3 compounds from patent US8929978B2, “Phototherapy devices and methods comprising optionally substituted terphenyl and quaterphenyl compounds” (Nitto Denko Corporation, priority 2011, dated 2015).

The subject of assay [1] is person suffering from actinic keratoses. Description: Photodynamic treatment of actinic keratoses lesions with red OLED light. The note with it: 20% topical solution; illuminated about 14-18 hours after application with red OLED of Example 2.
Assay [2] relates to CHO-K1 (Chinese Hamster Ovarian Cancer, ATCC, CRL-2243) cell line. Description: Ex-vivo efficacy study with OLED Device A and ALA (MTT cell viability, microscopy).
Assay [3] concerns person suffering from presumed ocular histoplasmosis. The note with it: in vivo, iv.
Assay [4] has as its system person suffering from pathological myopia. Description: Verteporphin activated by red OLED light in pathological myopia. In kind it is in vivo. The note with it: about 6 mg/m^2 i.v.; retina illuminated about 15 minutes after start of infusion with red OLED.
For assay [5], the system named is person suffering from age-related macular degeneration. Description: Verteporphin activated by red OLED light in age-related macular degeneration. In kind it is in vivo. The note with it: about 6 mg/m^2 i.v.; retina illuminated about 15 minutes after start of infusion with red OLED.

For the compound `Cl.NCC(=O)CCC(=O)O` [5-Aminolevulinic acid HCl], the “number or severity of the lesions after treatment” value in assay [1] is listed as “reduced”.

For the compound `NCC(=O)CCC(=O)O` [ALA, 5-aminolevulinic acid], the “cell necrosis, 20 mW/cm^2 versus 10 mW/cm^2 output power” value in assay [2] (ALA 1 mM, irradiation time 25 min at 20 mW/cm^2 and 50 min at 10 mW/cm^2 (FIG. 17)) is listed as “somewhat faster with 20 mW/cm^2 than 10 mW/cm^2”. In addition, in assay [2] (ALA 0.5, 1, 2 mM, about 16 hrs at 37° C., fluorescence emission at 635 nm), the “generation of PpIX (protoporphyrin IX) from ALA in cells” value is listed as “confirmed”. In addition, the cytotoxicity at 1000 µM in assay [2] (Cricetulus griseus, CHO-K1, light or radiation study, read-out: cells destroyed compared with the reference (MTT cell viability, light dosimetry)) is ~90%. For the same compound, the “cell morphology under optical microscope after light irradiation” value in assay [2] (after about 25 J/cm^2 red light (630 nm) irradiation, leafy type cells transform to droplet type (FIG. 14)) was “significant and irreversible cell death”.

As to `C=Cc1c(C)c2cc3nc(cc4[nH]c(cc5nc(cc1[nH]2)C(C)=C5CCC(=O)O)c(CCC(=O)OC)c4C)[C@@]1(C)C3=CC=C(C(=O)OC)[C@H]1C(=O)OC` [Verteporphin], the “patient's vision after treatment” value in assay [3], in assay [4] and in assay [5] was “stabilized” throughout.
